Data set [1] is filed under the species Rattus norvegicus. The data set is described as follows: Relative potency with reference to quinidine. It is filed as functional.
Data set [2] concerns Rattus norvegicus. The data set is described as follows: Tested for incidence of arrhythmias in rats after a intravenal administration of 1 mg/kg expressed as no. of positive cases out of no. of tested cases (10). It is filed as functional.
Data set [3] in a line: Acute toxicity determined after intravenal administration in mice. Format: organism-based. Particulars: mouse, in vivo, iv.
The test system of data set [4] is Rattus norvegicus. The data set is described as follows: Effective dose against aconitine-induced arrhythmia after intravenal administration in anesthetized rats. It is filed as functional.
Data set [5] deals with Cavia porcellus. The data set is described as follows: Amount of ouabain needed for production of ventricular extra-systoles at a dose of 4 mg/kg (iv given 5 min prior) in guinea pig. It is filed as functional, Cardiac ventricle.
Data set [6] deals with Cavia porcellus. Nature of the data set: Amount of ouabain needed for production of ventricular arrhythmias that causes death in guinea pig by cardiac arrest at a dose of 4 mg/kg iv given 5 min prior. It is filed as functional, Cardiac ventricle.
For data set [7], the system named is Cavia porcellus. The data set is described as follows: Amount of ouabain needed for production of ventricular fibrillation at a dose of 4 mg/kg (iv given 5 min prior) in guinea pig. Format: functional, Cardiac ventricle.
The test system of data set [8] is Cavia porcellus. The data set is described as follows: Amount of ouabain needed for production of ventricular arrhythmias that causes death in guinea pig by cardiac arrest at a dose of 2 mg/kg iv given 5 min prior. Format: functional, Cardiac ventricle.
For data set [9], the system named is Cavia porcellus. Nature of the data set: Amount of ouabain needed for production of ventricular fibrillation at a dose of 2 mg/kg (iv given 5 min prior) in guinea pig. It is filed as functional, Cardiac ventricle.
The test system of data set [10] is Cavia porcellus. Nature of the data set: Amount of ouabain needed for production of ventricular extra-systoles at a dose of 2 mg/kg (iv given 5 min prior) in guinea pig. Format: functional, Cardiac ventricle.
Data set [11] has as its system Rattus norvegicus. Nature of the data set: Tested for incidence of arrhythmias in rats after a intravenal administration of 2 mg/kg expressed as no. of positive cases out of no. of tested cases (10). Format: functional.
Data set [12] concerns Rattus norvegicus. The data set is described as follows: Incidence of arrhythmias in rats after a intravenal administration at 4 mg/kg, expressed as no. of positive cases out of no. of tested cases (10). Format: functional.
The nature of data set [13]: Acute toxicity in secondary evaluation when administered intravenously (iv) against aconitine-induced arrhythmias in anesthetized rats..parenthesis indicates 95%CL. Particulars: rat, in vivo. It is filed as organism-based.
Data set [14] concerns Rattus norvegicus. Nature of the data set: Tested for incidence of arrhythmias in rats after a intravenal administration of 4 mg/kg expressed as no. of positive cases out of no. of tested cases (10). It is filed as functional.
Data set [15] in a line: (§1) Acute toxicity in secondary evaluation when administered intravenously (iv) against aconitine-induced arrhythmias in anesthetized rats. Particulars: rat, in vivo. It is filed as organism-based.
Data set [16] in a line: (§2) Acute toxicity in secondary evaluation when administered intravenously (iv) against aconitine-induced arrhythmias in anesthetized rats. It is filed as organism-based. The note with it: rat, in vivo.
The test system of data set [17] is Rattus norvegicus. The data set is described as follows: Tested for incidence of arrhythmias in rats after a intravenal administration of 0.5 mg/kg expressed as no. of positive cases out of no. of tested cases (10). Format: functional.
For data set [18], the system named is Cavia porcellus. Nature of the data set: Amount of ouabain needed for production of ventricular extra-systoles at a dose of 1 mg/kg (iv given 5 min prior) in guinea pig. Format: functional, Cardiac ventricle.
Data set [19] has as its system Cavia porcellus. The data set is described as follows: Amount of ouabain needed for production of ventricular fibrillation at a dose of 1 mg/kg (iv given 5 min prior) in guinea pig. It is filed as functional, Cardiac ventricle.
In data set [20] the test system is Cavia porcellus. Nature of the data set: Amount of ouabain needed for production of ventricular arrhythmias that causes death in guinea pig by cardiac arrest at a dose of 1 mg/kg iv given 5 min prior. Format: functional, Cardiac ventricle.
In data set [21] the test system is Rattus norvegicus. The data set is described as §1. It is filed as functional, organism-based.
The subject of data set [22] is Rattus norvegicus. The data set is described as follows: Acute toxicity in secondary evaluation when administered intravenously (iv) against aconitine-induced arrhythmias in anesthetized rats. Relative potency with respect to quinidine. It is filed as functional, organism-based.
Data set [23] relates to Rattus norvegicus. The description is as §2. It is filed as functional, organism-based.

In general, LD50 refers to the dose at which mortality reaches 50%. On to `CC1(C)CC(C(=O)NCCCNCc2ccccc2OCc2ccccc2)C(C)(C)N1` (stereo not given), for which the Relative potency in data set [1] was 22.9. The “No. of positive cases” value in data set [2] is recorded as 10. The same compound had an LD50 in data set [3] of 13 mg/kg. In data set [4], this compound registered an ED150 of 0.52 mg/kg.
On to `CCN(CC)C(=O)COc1c(CNCCCNC(=O)C2=CC(C)(C)NC2(C)C)cccc1OC`, for which, in data set [2], the “No. of positive cases” value was 1. In [3], this compound displayed an LD50 of 2.1 mg/kg.
`Cc1cccc(C)c1NC(=O)C(C)N` (stereo not given) [TOCAINIDE]: the Average dose in data set [5] worked out at 0.236 mg/kg; in data set [6] it was 0.3928 mg/kg; in data set [7], 0.3581 mg/kg.
The like results for `Cc1cccc(C)c1OCC(C)N` (stereo not given) [MEXILETINE] were, in that order, 0.1855 mg/kg, 0.2861 mg/kg and 0.2459 mg/kg.
As for `CC1(C)C=C(C(=O)NCCCN2C(=O)c3ccccc3C2=O)C(C)(C)N1`, the Average dose was determined as 0.3825 mg/kg in data set [8], 0.3455 mg/kg in [9] and 0.2369 mg/kg in [10]. The compound further came in with a Relative potency in data set [1] of 4.6. In addition, in data set [11], the “No. of positive cases” value was 10.
On to `Cc1cccc(C)c1NC(=O)CNC(=O)C1=CC(C)(C)N([O])C1(C)C`, for which, in data set [12], the “No. of positive cases” value amounted to 0. Also, the 50% lethal dose (LD50) in [13] was 136 mg/kg.
`CCCc1ccc(OCC(=O)NCCCNC(=O)C2=CC(C)(C)NC2(C)C)c(OC)c1` yielded a Relative potency in data set [1] of 4.1. The “No. of positive cases” value in [14] came out at 10. In data set [3], the LD50 was found to be 12 mg/kg. In [4], this compound displayed an ED150 of 2.9 mg/kg.
With `Cc1cccc(C)c1NC(=O)CNC(=O)C1=CC(C)(C)NC1(C)C`, the Average dose turned out to be 0.3314 mg/kg in [8], 0.2842 mg/kg in data set [9] and 0.2142 mg/kg in [10]. The Relative potency in [1] amounted to 4.9. Besides, the “No. of positive cases” value in [12] is 10. In [3], this compound yielded an LD50 of 53 mg/kg. Further, the ED150 in [4] came out at 2.4 mg/kg.
Compound `CC1(C)C=C(C(=O)NCCCN2C(=O)c3ccccc3C2=O)C(C)(C)N1[O]` showed a 50% lethal dose (LD50) in [15] of 187 mg/kg. In addition, in data set [12], the “No. of positive cases” value is recorded as 0.
As to `C=CCc1ccc(OCC(=O)NCCCNC(=O)C2=CC(C)(C)NC2(C)C)c(OC)c1`, the Average dose in data set [8] is 0.3988 mg/kg; in data set [9], 0.3536 mg/kg; in data set [10], 0.2266 mg/kg. In data set [1], this compound yielded a Relative potency of 8.5. Moreover, in data set [14], the “No. of positive cases” value is 10.
Take `CC.Cc1cccc(C)c1NC(=O)CNC(=O)C1CC(C)(C)N(O)C1(C)C` (stereo not given): the median lethal dose (LD50) in data set [16] is > 200 mg/kg. For the same compound, the “No. of positive cases” value in [12] is 0.
As for `Cc1cccc(C)c1NC(=O)C(C)NC(=O)C1=CC(C)(C)NC1(C)C` (stereo not given), the Average dose in data set [8] was 0.361 mg/kg; in [9], 0.3253 mg/kg; in data set [10], 0.2089 mg/kg. Also, the Relative potency in [1] worked out at 6.3. Further, in data set [12], the “No. of positive cases” value is listed as 10. Further, the median lethal dose (LD50) in [3] is 15 mg/kg. In addition, the ED150 in data set [4] was determined as 1.9 mg/kg.
In turn, `Cc1cccc(C)c1OCC(C)NC(=O)C1CC(C)(C)NC1(C)C` (stereo not given) had a Relative potency in data set [1] of 30.5. The “No. of positive cases” value in data set [17] came out at 10. Besides, the median lethal dose (LD50) in [3] is 2 mg/kg. In addition, the ED150 in data set [4] turned out to be 0.39 mg/kg.
As to `Cc1cccc(C)c1NC(=O)C(C)NC(=O)C1=CC(C)(C)N([O])C1(C)C` (stereo not given), the “No. of positive cases” value in data set [12] is given as 0. Further, the LD50 in data set [13] was 165 mg/kg.
`Cc1cccc(C)c1NC(=O)C1=CC(C)(C)NC1(C)C` displayed a Relative potency in [1] of 5.7. Further, the “No. of positive cases” value in [2] was 7. Besides, the LD50 in data set [3] is 6 mg/kg. The ED150 in [4] is 2.1 mg/kg.
As for `CCN(CC)CC(=O)Nc1c(C)cccc1C` [LIDOCAINE], the values for the Average dose in [5], in data set [6] and in data set [7] were 0.2001 mg/kg, 0.2702 mg/kg and 0.2477 mg/kg, respectively.
Compound `C=CCc1ccc(OC(C)C(=O)NCCCNC(=O)C2=CC(C)(C)NC2(C)C)c(OC)c1` (stereo not given) gave a Relative potency in data set [1] of 14.9. For the same compound, in data set [2], the “No. of positive cases” value is 10. In data set [3], the LD50 amounted to 7.6 mg/kg. The ED150 in data set [4] was 0.8 mg/kg.
In the case of `CCc1nc2ccccc2c(=O)n1CCCNC(=O)C1=CC(C)(C)NC1(C)C`, the figures for the Average dose in data set [18], in data set [19] and in data set [20] were 0.2115 mg/kg, 0.2982 mg/kg and 0.316 mg/kg, respectively. The same compound registered a Relative potency in data set [1] of 7. Also, the “No. of positive cases” value in data set [11] was 10.
The compound `Cc1cccc(C)c1OCC(C)NC(=O)C1CC(C)(C)N([O])C1(C)C` (stereo not given) showed an ED150 in data set [21] of 9.2 mg/kg. The compound further showed a No. of positive cases in data set [12] of 6. Further, the Relative potency in [22] was determined as 1.3. The compound also came in with an LD50 in data set [23] of 21 mg/kg.
On to `C=CCOc1ccccc1CNCCCNC(=O)C1=CC(C)(C)NC1(C)C`, for which the Average dose came out at 0.2243 mg/kg in data set [18], 0.2802 mg/kg in data set [19] and 0.3061 mg/kg in data set [20]. In addition, in [1], the Relative potency is on record as 6.3. Also, the “No. of positive cases” value in data set [11] was 10. The compound also registered an LD50 in data set [3] of 18 mg/kg. Further, the ED150 in data set [4] worked out at 1.9 mg/kg.
On to `C/C=C/c1ccc(OCC(=O)NCCCNC(=O)C2=CC(C)(C)NC2(C)C)c(OC)c1`, for which the Average dose in data set [8] came out at 0.2847 mg/kg; in [9] it was 0.2509 mg/kg; in [10], 0.2011 mg/kg. This compound returned a Relative potency in data set [1] of 5.4. The “No. of positive cases” value in data set [12] is recorded as 7. The compound also gave an LD50 in [3] of 30 mg/kg.
With `Cc1cccc(C)c1OCC(C)NC(=O)C1=CC(C)(C)NC1(C)C` (stereo not given), the Average dose in data set [18] came to 0.2534 mg/kg; in [19], 0.3166 mg/kg; in data set [20], 0.3476 mg/kg. The Relative potency in data set [1] was determined as 12.8. Also, the “No. of positive cases” value in data set [17] is listed as 10. Besides, the LD50 in [3] is 11 mg/kg. The compound also registered an ED150 in [4] of 0.93 mg/kg.
`Cc1cccc(C)c1OCC(C)NC(=O)C1=CC(C)(C)N([O])C1(C)C` (stereo not given): the “No. of positive cases” value in [12] was 0. In addition, the LD50 in [13] worked out at 54 mg/kg.
Regarding `Cc1cccc(C)c1NC(=O)CNC(=O)C1CC(C)(C)NC1(C)C` (stereo not given), the Average dose in data set [8] was found to be 0.3199 mg/kg; in [9], 0.2909 mg/kg; in data set [10], 0.1969 mg/kg. For the same compound, in data set [1], the Relative potency is listed as 14.2. The “No. of positive cases” value in [12] was 10. This compound had a median lethal dose (LD50) in [3] of 40 mg/kg. In [4], this compound returned an ED150 of 0.84 mg/kg.
Take `Cc1cccc(C)c1NC(=O)CNCCCNC(=O)C1=CC(C)(C)NC1(C)C`: in data set [1], the Relative potency is listed as 32.2. Further, in data set [2], the “No. of positive cases” value was 10. In [3], the LD50 was determined as 7.4 mg/kg. In [4], the ED150 is 0.37 mg/kg.

These data come from ChEMBL document CHEMBL1123299, “New antiarrhythmic agents. 2,2,5,5-Tetramethyl-3-pyrroline-3-carboxamides and 2,2,5,5-tetramethylpyrrolidine-3-carboxamindes” (J Med Chem, 1986).
